Experiments:
Type in all cases: cell-based
Human CD4+ T cells = assay: CD4+ T cells chemotaxis assay towards CCL20; details: CD4+ T cell, 3 h
Text: Human CD4+ T cells were isolated from buffy coats of healthy donors using aCD4+ T Cell Isolation Kit(Miltenyi Biotec 130-096-533). Isolated T cells were stimulated overnight with anti-CD3 and anti-CD28 antibodies (Biolegend 300314/302934) in growth medium (RPMI1640, 10% heat-inactivated FBS, 1× pen/strep (Gibco 15140)). For the chemotaxis assay, Corning Transwell plates were used with a pore size of 5 m (Corning 3388). T cells were counted and diluted to 6*10^6 cells/ml in chemotaxis medium (RPMI1640, 1% BSA, pen/strep). Compounds were four-fold serially diluted in DMSO. Further dilutions were made in chemotaxis medium. Cells were incubated with test compounds for 30 min at 37° C. prior to initiation of the assay (3*10^6 cells/ml). Final DMSO concentration in the assay was 0.2%. Wells of the Transwell plates were filled with 200 μl chemotaxis medium containing 150 ng/ml CCL20 (R&D systems 360-MP). 50 μl of the cell/compound suspension was added to the inserts of the Transwell plates (150,000 cells/insert). The Transwell plates were placed in an incubator at 37° C., 5% CO2 for 3 h. After 3 h, the number of migrated cells was quantified using CellTiter Glo (Promega). Percentage inhibition values were calculated based on the low and high signal obtained with 0.2% DMSO in chemotaxis medium without and with CCL20, respectively. The relative Log IC50 was determined with GraphPad Prism 9 using a four-parameter dose-response model.

human CCR6 [1] = molecular target: T1, human CCR6 (Homo sapiens, UniProt P51684); assay: Human CCR6-CRE reporter assay; set-up: The second construct contained the open reading frame of human CCR6 in the pUNO1 backbone; host or cells: 293FT cells (transient transfection with TransIT-293); details: 293FT cells transfected with human CCR6 and CRE-luciferase; Forskolin + CCL20, 5 h; relative Log IC50; read-out: CCR6-CRE reporter (converted)
T1 sequence (P51684 1-374): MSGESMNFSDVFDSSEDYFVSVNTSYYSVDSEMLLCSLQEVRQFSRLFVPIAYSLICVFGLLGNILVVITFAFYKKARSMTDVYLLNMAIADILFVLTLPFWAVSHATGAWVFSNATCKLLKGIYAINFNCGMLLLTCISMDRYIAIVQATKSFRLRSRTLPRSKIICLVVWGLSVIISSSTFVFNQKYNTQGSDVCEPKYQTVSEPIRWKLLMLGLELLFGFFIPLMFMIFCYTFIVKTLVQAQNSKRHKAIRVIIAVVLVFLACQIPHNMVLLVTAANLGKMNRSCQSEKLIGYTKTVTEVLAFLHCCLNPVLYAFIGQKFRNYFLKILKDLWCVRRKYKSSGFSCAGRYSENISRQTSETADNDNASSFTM
Experimental: 293FT cells were transfected with 2 constructs using TransIT-293 (Mirus). The first construct (pGL4.29, Promega) expressed the luciferase reporter gene luc2P in response to the binding of cAMP-induced CREB to the CREelement in its promoter. The second construct contained the open reading frame of human CCR6 in the pUNO1 backbone under the control of an enhanced CMV promoter(InVivoGen).48 h after transfection, cells were harvested and diluted to 750,000 cells/ml in culture medium (DMEM, 10% FBS, 1× pen/strep(Gibco 15140)). Compounds were 2.5-fold serially diluted in DMSO. Further dilutions were made in assay medium (DMEM, 10% FBS, 1× pen/strep, 6 μM Forskolin, 6 nM CCL20). 4 μl of the compound solution was added to a white MW384 plate, followed by […] of the cell suspension. Final DMSO concentration in the assay was 0.1%. The MW384 plate was placed in an incubator at 37° C., 5% CO2 for 5 h. Luciferase activity was determined by addition of 24 μl of a 2.5× diluted BriteLite luciferase solution(Perkin Elmer), followed by luminescence measurement using a VICTOR Plate reader (Perkin Elmer). […] The relative Log IC50 was determined with GraphPad Prism 9 using a four-parameter dose-response model.

human CCR6 [2] = molecular target: T1, human CCR6; assay: CHO-K1 CCR6 chemotaxis assay towards CCL20; details: CHO-K1 cells overexpressing human CCR6; 100 ng/ml CCL20, 4 h; relative Log IC50
Text: Cells overexpressing human CCR6 were used in the chemotaxis assay (DiscoverX, cAMP Hunter™ CHO-K1 CCR6 Gi Cell Line). Growth medium of these cells consisted of DMEM/F12, non-essential Amino acids (1×NEAA, Gibco 11140050), 10% FBS and 1× pen/strep (Gibco 15140). For the chemotaxis assay, Corning Transwell plates were used with a pore size of 8 m (Corning 351164). Cells were harvested using trypsin and diluted to 4*10^6 cells/ml in chemotaxis medium (DMEM, 0.25% BSA, pen/strep). Compounds were four-fold serially diluted in DMSO. Further dilutions were made in chemotaxis medium. Cells were incubated with test compounds for 30 min at 37° C. prior to initiation of the assay (2*10^6 cells/ml). Final DMSO concentration in the assay was 0.2%. Wells of the Transwell plates were filled with 200 μl chemotaxis medium containing 100 ng/ml CCL20 (R&D systems 360-MP). 50 μl of the cell/compound suspension was added to the inserts of the Transwell plates (100,000 cells/insert). The Transwell plates were placed in an incubator at 37° C., 5% CO2 for 4 h. After 4 h, the number of migrated cells was quantified using CellTiter Glo (Promega). Percentage inhibition values were calculated based on the low and high signal obtained with 0.2% DMSO in chemotaxis medium without and with CCL20, respectively. The relative Log IC50 was determined with GraphPad Prism 9 using a four-parameter dose-response model.

SMILES | IC50 (Human CD4+ T cells) [nM] | IC50 (human CCR6 [1]) [nM] | IC50 (human CCR6 [2]) [nM]
CC(C)c1nnc2ccc(-c3ccc(S(=O)(=O)N4CCC(Nc5ccc(SC(F)(F)F)cn5)CC4)cc3)cn12 [Example 65, N-(1-{4-[3-(propan-2-yl)-[1,2,4]triazolo[4,3-a]pyridin-6-yl]benzenesulfonyl}piperidin-4-yl)-5-[(trifluoromethyl)sulfanyl]pyridin-2-amine] | 5.01 | 25.1 | –
Cc1nnc2ccc(-c3ccc(S(=O)(=O)N4CCC(Nc5ccc(SC(F)(F)F)cn5)CC4)cc3)cn12 [Example 67, N-[1-(4-{3-methyl-[1,2,4]triazolo[4,3-a]pyridin-6-yl}benzenesulfonyl)piperidin-4-yl]-5-[(trifluoromethyl)sulfanyl]pyridin-2-amine] | 12.6 | 39.8 | –
CC(C)c1cnc2ccc(-c3ccc(S(=N)(=O)[C@H]4CC[C@H](Nc5ccc(SC(F)(F)F)cc5)CC4)cc3)cn12 (stereo partly drawn) [Example 51, {4-[3-(propan-2-yl)imidazo[1,2-a]pyridin-6-yl]phenyl}[trans-4-({4-[(trifluoromethyl)sulfanyl]phenyl}Amino)cyclohexyl](imino)-λ^6-sulfanone] | – | 79.4 | 794
CC(C)c1nnc2cnc(-c3ccc(S(=O)(=O)N4CCC(Nc5ccc(OC(F)(F)F)cn5)CC4)cc3)cn12 [Example 59, N-(1-{4-[3-(propan-2-yl)-[1,2,4]triazolo[4,3-a]pyrazin-6-yl]benzenesulfonyl}piperidin-4-yl)-5-(trifluoromethoxy)pyridin-2-amine] | – | 63.1 | 7.94
O=S(=O)(c1ccc(-c2ccc3nccn3c2)cc1)[C@H]1CC[C@H](Nc2cccc(SC(F)(F)F)c2)CC1 [Example 46, N-[trans-4-(4-{imidazo[1,2-a]pyridin-6-yl}benzenesulfonyl)cyclohexyl]-3-[(trifluoromethyl)sulfanyl]aniline] | – | 63.1 | 794
Cc1n[nH]c2ncc(-c3ccc(S(=O)(=O)[C@H]4CC[C@H](Nc5ccc(SC(F)(F)F)cc5)CC4)cc3)cc12 [Example 72, N-[trans-4-(4-{3-methyl-1H-pyrazolo[3,4-b]pyridin-5-yl}benzenesulfonyl)cyclohexyl]-4-[(trifluoromethyl)sulfanyl]aniline] | 3.98 | 39.8 | –
Cc1cc(-c2ccc(S(=O)(=O)N3CCC(Nc4ccc(SC(F)(F)F)cn4)CC3)cc2)cn2c(C(C)C)nnc12 [Example 68, N-(1-{4-[8-methyl-3-(propan-2-yl)-[1,2,4]triazolo[4,3-a]pyridin-6-yl]benzenesulfonyl}piperidin-4-yl)-5-[(trifluoromethyl)sulfanyl]pyridin-2-amine] | 2 | 63.1 | –
CC(C)c1nnc2cnc(-c3ccc(S(=O)(=O)N4CCC(Nc5ccc(SC(F)(F)F)cn5)CC4)cc3)cn12 [Example 66, N-(1-{4-[3-(propan-2-yl)-[1,2,4]triazolo[4,3-a]pyrazin-6-yl]benzenesulfonyl}piperidin-4-yl)-5-[(trifluoromethyl)sulfanyl]pyridin-2-amine] | 1.58 | 31.6 | –

The next lines start with the values.

IC50 (Human CD4+ T cells) [nM] | IC50 (human CCR6 [1]) [nM] | IC50 (human CCR6 [2]) [nM] | SMILES
50.1 | 39.8 | – | N#Cc1ccc(-c2ccc(S(=O)(=O)N3CCC(Nc4ccc(OC(F)(F)F)cc4)CC3)cc2)cc1 [Example 1, 4′-[(4-{[4-(trifluoromethoxy)phenyl]Amino}piperidin-1-yl)sulfonyl]-[1,1′-biphenyl]-4-carbonitrile]
12.6 | 79.4 | – | O=c1[nH]nc2ccc(-c3ccc(S(=O)(=O)N4CCC(Nc5ccc(SC(F)(F)F)cn5)CC4)cc3)cn12 [Example 74, 6-(4-{[4-({5-[(trifluoromethyl)sulfanyl]pyridin-2-yl}amino)piperidin-1-yl]sulfonyl}phenyl)-2H,3H-[1,2,4]triazolo[4,3-a]pyridin-3-one]
50.1 | 126 | – | Cc1n[nH]c2ccc(-c3ccc(S(=O)(=O)N4CCC(Nc5ccc(OC(F)(F)F)cc5)CC4)cc3)cc12 [Example 6, 1-[4-(3-methyl-1H-indazol-5-yl)benzenesulfonyl]-N-[4-(trifluoromethoxy)phenyl]piperidin-4-amine]
10 | 79.4 | – | N#Cc1c[nH]c2ccc(-c3ccc(S(=O)(=O)N4CCC(Nc5ccc(OC(F)(F)F)cc5)CC4)cc3)cc12 [Example 13, 5-{4-[(4-{[4-(trifluoromethoxy)phenyl]Amino}piperidin-1-yl)sulfonyl]phenyl}-1H-indole-3-carbonitrile]
– | 63.1 | 20 | N#Cc1n[nH]c2ccc(-c3ccc(S(=O)(=O)N4CCC(Nc5ccc(OC(F)(F)F)cc5)CC4)cc3)cc12 [Example 14, 5-{4-[(4-{[4-(trifluoromethoxy)phenyl]Amino}piperidin-1-yl)sulfonyl]phenyl}-1H-indazole-3-carbonitrile]
– | 158 | 63.1 | Cc1cnc2ccc(-c3ccc(S(=O)(=O)[C@H]4CC[C@H](Nc5ccc(OC(F)(F)F)cc5)CC4)cc3)cn12 [Example 41, N-[trans-4-(4-{3-methylimidazo[1,2-a]pyridin-6-yl}benzenesulfonyl)cyclohexyl]-4-(trifluoromethoxy)aniline]
20 | 100 | – | CNC(=O)c1cccc(-c2ccc(S(=O)(=O)N3CCC(Nc4ccc(OC(F)(F)F)cc4)CC3)cc2)c1 [Example 4, N-methyl-4′-[(4-{[4-(trifluoromethoxy)phenyl]Amino}piperidin-1-yl)sulfonyl]-[1,1′-biphenyl]-3-carboxamide]
– | 79.4 | 31.6 | O=c1[nH]nc2ccc(-c3ccc(S(=O)(=O)N4CCC(Nc5ccc(OC(F)(F)F)cn5)CC4)cc3)cn12 [Example 24, 6-{4-[(4-{[5-(trifluoromethoxy)pyridin-2-yl]Amino}piperidin-1-yl)sulfonyl]phenyl}-2H,3H-[1,2,4]triazolo[4,3-a]pyridin-3-one]
